Read-outs that look alike come from different tables or passages of the source. Ends that are not written are not given here.
Tests used:
Assay type in all cases: cell-based, Escherichia coli
[1] = tested on: E. coli K-12 BW25113; assay: microbe, parasite or virus in culture
From the text: Unless otherwise indicated, Minimal Salt (MS) medium was used in all experiments, including the laboratory evolution experiments. In line with previous, methodologically relevant laboratory evolution studies, the physical conditions (including the medium) were the same during the course of laboratory evolution and all forthcoming assays on the resulting resistant lines (e.g. MIC measurements). We previously optimized this medium for studying AMPs (1 g L^−1 (NH4)2SO4, 3 g L^−1 KH2PO4 and 7 g L^−1 K2HPO4 supplemented with 0.1 mM MgSO4, 0.54 µg mL^−1 FeCl3, 1 µg mL^−1 thiamine hydrochloride, 0.2% Casamino acids and 0.2% glucose)[19]. This medium is highly controlled and provides a reproducible environment for experimental evolution experiments. All components were obtained from Sigma-Aldrich.
MICs were determined using a standard serial broth dilution technique. Briefly, 11-step serial dilutions were prepared in 96-well microtiter plates with three replicates per strain and antimicrobial compound. Each experiment was repeated at least twice. 5 × 10^5 cells/mL were inoculated into each well, and the plates were incubated at 30 °C in case of E. coli K-12 BW25113, and its antibiotic and AMP-adapted lines, or 37 °C in case of the other bacterial species. […] Cell growth was monitored by measuring the optical density (OD600 value, Biotek Synergy 2 microplate reader was used for this purpose). […] Relative MIC was calculated as follows: MICrelative = MICevolved/MICcontrol.

[2] = tested on: antibiotic- and AMP-adapted E. coli K-12 BW25113 lines; assay: High-throughput fitness measurement of adapted lines (area under growth curve, drug-free medium); details: adapted line APC1
From the text: We estimated fitness by measuring growth of these strains and the corresponding wild-type in antibiotic-free medium (“Methods”). […] As might be expected, fitness costs varied substantially across antibiotics and AMPs (Fig. 1b). […] This pattern is unlikely to reflect differences in the level of resistance between AMP and antibiotic strains, respectively. There is only a weak, marginally significant negative correlation between the level of resistance and fitness cost (Supplementary Fig. 1, Spearman’s rho = −0.24, P = 0.016 (N = 98)), and this correlation becomes non-significant after controlling for drug type (P = 0.6 and P = 0.39 for antibiotics (N = 60) and AMPs (N = 38) respectively, Spearman’s correlation).
Bacterial cell growth was assayed by continuously monitoring the optical density (OD600) of liquid cultures using 384-well microtiter plates containing MS medium, the same medium used during the laboratory evolution. Fitness was measured for a total of 60 antibiotic-adapted and the 38 AMP-adapted E. coli K-12 BW25113 lines (at least four lines per antibiotic or AMP). All measurements were performed twice (six technical replicates per experiment). Starter cultures were inoculated into 96-well plates containing MS medium and incubated for 20 h at 30 °C for E. coli K-12 BW25113 and its evolved lines. After this growth period, the OD600 of each culture was read and the starting cell number set to a final of 50,000 cells per well to a final volume of 60 µl. A total of 384-well plates were inoculated combining four different 96-well starter plates together: one plate having the unevolved wild-type control as a reference strain in all wells in order to estimate possible variation in growth within-plate measurement causing biases to the reading, and three plates containing the different set of antibiotic or AMP-adapted lines. Cell growth was monitored by measuring the optical density at 600 nm every 5 min (OD600 value, Biotek Synergy 2 microplate reader was used for this purpose). The integral data was calculated by the Biotek Gen5 Data Analysis Software between 1 and 24 h in case of E. coli K-12 BW25113 adapted lines. Because of possible influence of temperature equilibration in the first hour of measurement, this time period was excluded from the analysis.

[3] = tested on: E. coli K-12 BW25113 carrying ASKA plasmids; assay: microbe, parasite or virus in culture; details: MS medium + 10 µg mL−1 CHL + 500 µM IPTG, 5 × 10^5 cells, 16–18 h, 37 °C; for MIC: Escherichia coli
From the text: Bacterial gene amplification generates extensive genetic variation that can provide drug resistance[37],[38]. As gene amplification events tend to be genetically unstable and reduce bacterial fitness, they are transient in nature. Using the ASKA library, which comprises each E. coli ORF cloned into an expression vector[40], we have conducted a global survey to evaluate whether artificially amplified genes provide resistance to any of the 14 AMPs and 11 antibiotics tested. As chloramphenicol (CHL) was used as a selection marker for the ASKA plasmid, this antibiotic was not tested in this screen. E. coli K-12 BW25113 cells were transformed with the pooled plasmids of the ASKA library, and the genetically mixed populations were exposed to increasing levels of AMP or antibiotic stresses, respectively. In all cases, the employed AMP or antibiotic dosages were above the MIC of the wild type. For each drug, we identified the MIC provided in the pooled ASKA plasmid library, and compared it to the MIC of the wild-type strain carrying the empty ASKA plasmid.
The ASKA library (a complete set of E. coli K-12 ORF archive) includes every E. coli ORF cloned into an expression vector (pCA24N)[65]. Prior to screening, the ASKA plasmid collection was pooled and transformed into E. coli K-12 BW25113 strain[66]. The plasmid pool was created by pooling an equal aliquot of cells, each carrying different members of the ASKA library, followed by plasmid miniprep. Next, the plasmid pool was electroporated into E. coli K-12 BW25113 competent cells. […] For the MICs measurements 500 000 cells were inoculated in each well which represents ~100 times coverage of each library member. […] Prior to the measurements the cell population containing the pooled overexpression library or the control strain containing the empty vector were grown in three replicates in LB medium supplemented with 20 µg/mL CHL. As the culture reached high density (i.e., OD600 > 0.8), expression of the plasmid was induced by 50 µM IPTG for 1 h. Following induction, 5 × 10^5 bacterial cells were inoculated in three replicates into each well of the 96-well plate and incubated for 16–18 h at 37 °C. Following incubation the MIC values were determined by measuring optical densities in a plate reader (Biotek Synergy).

[4] = tested on: E.coli K-12 BW25113; details: for MIC (freshly prepared AMP): plates inoculated immediately; for MIC (pre-incubated AMP): plates pre-incubated 72 hours before inoculation
Procedure: MICs were determined using a standard serial broth dilution technique. Briefly, 11-step serial dilutions were prepared in 96-well microtiter plates with three replicates per strain and antimicrobial compound. Each experiment was repeated at least twice. 5 × 10^5 cells/mL were inoculated into each well, and the plates were incubated at 30 °C in case of E. coli K-12 BW25113, and its antibiotic and AMP-adapted lines, or 37 °C in case of the other bacterial species. Plates were shaken at 300 r.p.m. during incubation for 24 and 18 h, respectively. Cell growth was monitored by measuring the optical density (OD600 value, Biotek Synergy 2 microplate reader was used for this purpose). […] Relative MIC was calculated as follows: MICrelative = MICevolved/MICcontrol.
Supplementary Table 7- Effect of incubation time on the minimum inhibitory concentration (MIC) of AMPs. We tested whether the prolonged incubation time can affect the MIC of AMPs. To test this, two sets of AMP containing MIC plates were prepared in parallel. The first set was immediately inoculated with E.coli K-12 BW25113, while the second set was pre-incubated 72 hours before inoculation with the […]
observed in the MIC between freshly prepared and pre-incubated plates. […]

[5] = replicate 1 (first line of the sheet)
[6] = starting wild-type strain of the evolution experiment, broth dilution, MS medium, 5 × 10^5 cells/mL, 30 °C, 24 h, MIC = OD600 < 0.05
[7] = time allowed for bacterial growth 48 hours
[8] = time allowed for bacterial growth 24 hours
[9] = time allowed for bacterial growth 72 hours

For `CC1(C)S[C@@H]2[C@H](NC(=O)[C@H](N)c3ccccc3)C(=O)N2[C@H]1C(=O)O` [APC, Ampicillin], the MIC ([1]; Escherichia coli, BW25113, 24 h, read-out: MIC) was 6.2 mg/L, the “integral (measured integral data)” value [2, 5] was 10905.8 and the “normalized integral (integral normalized to wild-type)” value (shortened to “normalized integral”) [2, 5] was 0.2843. The “integral (measured integral data)” value ([2]; replicate 2) was 12217.4, the “normalized integral” value ([2]; replicate 2) was 0.3185 and the “integral (measured integral data)” value ([2]; replicate 3) was 11200. For the same compound, the “normalized integral” value ([2]; replicate 3) was 0.292, the “integral (measured integral data)” value ([2]; replicate 4) was 11338.5 and the “normalized integral” value ([2]; replicate 4) was 0.2956. The “integral (measured integral data)” value ([2]; replicate 5) was 13182.1, the “normalized integral” value ([2]; replicate 5) was 0.3436 and the MIC ([3]; BW25113, Replicate 1, read-out: MIC value of E. coli K-12 BW25113 carrying the empty plasmid of the ASKA library) was 4 mg/L. The MIC ([3]; BW25113, Replicate 1, read-out: MIC value of E. coli K-12 BW25113 carrying the pooled plasmids of the ASKA library) was 256 mg/L, the MIC ([3]; BW25113, Replicate 2, read-out: MIC value of E. coli K-12 BW25113 carrying the empty plasmid of the ASKA library) was 4 mg/L and the MIC ([3]; BW25113, Replicate 2, read-out: MIC value of E. coli K-12 BW25113 carrying the pooled plasmids of the ASKA library) was 256 mg/L. The MIC ([3]; BW25113, Replicate 3, read-out: MIC value of E. coli K-12 BW25113 carrying the empty plasmid of the ASKA library) was 4 mg/L and the MIC ([3]; BW25113, Replicate 3, read-out: MIC value of E. coli K-12 BW25113 carrying the pooled plasmids of the ASKA library) was 256 mg/L.

`CC[C@H](C)[C@H](NC(=O)[C@H](CCCCN)NC(=O)[C@H](CCC(=O)O)NC(=O)[C@H](CCCCN)NC(=O)[C@H](CO)NC(=O)[C@H](CCCCN)NC(=O)[C@H](CCCNC(=N)N)NC(=O)[C@H](Cc1ccccc1)NC(=O)[C@H](Cc1ccccc1)NC(=O)[C@H](CC(=O)O)NC(=O)CNC(=O)[C@H](CC(C)C)NC(=O)[C@@H](N)CC(C)C)C(=O)NCC(=O)N[C@@H](CCCCN)C(=O)N[C@@H](CCC(=O)O)C(=O)N[C@@H](Cc1ccccc1)C(=O)N[C@@H](CCCCN)C(=O)N[C@@H](CCCNC(=N)N)C(=O)N[C@H](C(=O)N[C@H](C(=O)N[C@@H](CCC(N)=O)C(=O)N[C@@H](CCCNC(=N)N)C(=O)N[C@H](C(=O)N[C@@H](CCCCN)C(=O)N[C@@H](CC(=O)O)C(=O)N[C@@H](Cc1ccccc1)C(=O)N[C@@H](CC(C)C)C(=O)N[C@@H](CCCNC(=N)N)C(=O)N[C@@H](CC(N)=O)C(=O)N[C@@H](CC(C)C)C(=O)N[C@H](C(=O)N1CCC[C@H]1C(=O)N[C@@H](CCCNC(=N)N)C(=O)N[C@H](C(=O)N[C@@H](CCC(=O)O)C(=O)N[C@@H](CO)C(=O)O)[C@@H](C)O)C(C)C)[C@@H](C)CC)C(C)C)[C@@H](C)CC` [LL37, cathelicidin antimicrobial peptide LL-37] was tested, and the MIC [1, 6] was 100 mg/L, the “MIC value of E. coli K-12 BW25113 carrying the empty plasmid of the ASKA library” value ([3]; Replicate 1) was 14.45 mg/L and the “MIC value of E. coli K-12 BW25113 carrying the pooled plasmids of the ASKA library” value ([3]; Replicate 1) was 14.45 mg/L. For the same compound, the “MIC value of E. coli K-12 BW25113 carrying the empty plasmid of the ASKA library” value ([3]; Replicate 2) was 12.04 mg/L, the “MIC value of E. coli K-12 BW25113 carrying the pooled plasmids of the ASKA library” value ([3]; Replicate 2) was 17.34 mg/L and the “MIC value of E. coli K-12 BW25113 carrying the empty plasmid of the ASKA library” value ([3]; Replicate 3) was 14.45 mg/L. The “MIC value of E. coli K-12 BW25113 carrying the pooled plasmids of the ASKA library” value ([3]; Replicate 3) was 14.45 mg/L, the “MIC (freshly prepared AMP)” value [4, 7] was 17.4 mg/L and the “MIC (pre-incubated AMP)” value [4, 8] was 17.4 mg/L. The “MIC (pre-incubated AMP)” value [4, 7] was 17.4 mg/L and the “MIC (pre-incubated AMP)” value [4, 9] was 17.4 mg/L.

In the case of “RFRPPIRRPPIRPPFYPPFRPPIRPPIFPPIRPPFRPPLGPFP [BAC5, Bactenecin 5]”, the MIC [1, 6] is reported as 7 mg/L, the “MIC value of E. coli K-12 BW25113 carrying the empty plasmid of the ASKA library” value ([3]; Replicate 1) is reported as 5.79 mg/L and the “MIC value of E. coli K-12 BW25113 carrying the pooled plasmids of the ASKA library” value ([3]; Replicate 1) is reported as 4.82 mg/L. For the same compound, the “MIC value of E. coli K-12 BW25113 carrying the empty plasmid of the ASKA library” value ([3]; Replicate 2) was 5.79 mg/L, the “MIC value of E. coli K-12 BW25113 carrying the pooled plasmids of the ASKA library” value ([3]; Replicate 2) was 5.79 mg/L and the “MIC value of E. coli K-12 BW25113 carrying the empty plasmid of the ASKA library” value ([3]; Replicate 3) was 5.79 mg/L. The “MIC value of E. coli K-12 BW25113 carrying the pooled plasmids of the ASKA library” value ([3]; Replicate 3) was 4.82 mg/L, the “MIC (freshly prepared AMP)” value [4, 8] was 14.5 mg/L and the “MIC (freshly prepared AMP)” value [4, 7] was 14.5 mg/L. The “MIC (freshly prepared AMP)” value [4, 9] was 14.5 mg/L, the “MIC (pre-incubated AMP)” value [4, 8] was 14.5 mg/L and the “MIC (pre-incubated AMP)” value [4, 7] was 14.5 mg/L. The “MIC (pre-incubated AMP)” value [4, 9] was 14.5 mg/L.
